Data published in article PMC6920897, “Interactions of 7,8-Dihydroxyflavone with Serum Albumin as well as with CYP2C9, CYP2C19, CYP3A4, and Xanthine Oxidase Biotransformation Enzymes” (Biomolecules, 2019).
“And” between values parts separate entries of the source, which are not always exact repeats. Identical values can stand only once. Like-named read-outs stand apart in the source and are kept apart here.

Legend:
CYP2C9 [1] = target: T1, CYP2C9 (Homo sapiens, UniProt P11712); assay: CYP2C9 in vitro enzyme assay (diclofenac to 4'-hydroxydiclofenac)
Procedure: The inhibitory action of DHF on CYP2C9 was investigated as described earlier. In the enzyme-catalyzed reaction, diclofenac is oxidized to 4′-hydroxydiclofenac. […] The incubates (with 200 μL final volume) contained CypExpress 2C9 reagent (8 mg/mL) including also the NADPH (nicotinamide adenine dinucleotide phosphate, reduced) generating system, diclofenac (15 μM), and increasing concentrations of DHF (0, 15, 30, 45, and 60 μM) in potassium phosphate buffer (50 mM, pH 7.5). The incubation was carried out in a thermomixer (80 min, 700 rpm, 30 °C). The reaction was started by the addition of the enzyme and stopped by the addition of 100 μL of ice-cold methanol; then, the samples were centrifuged (10 min, 14,000× g, 25 °C). Diclofenac and 4′-hydroxydiclofenac were analyzed in the supernatants by HPLC (see Section 2.5).
Diclofenac and 4′-hydroxydiclofenac (CYP2C9 assay) were quantified as reported previously. The samples were driven through a Phenomenex Security Guard (C8, 4.0 × 3.0 mm) guard column (Torrance, CA, USA) linked to an Eclipse C8 (150 × 4.6 mm, 5 μm; Agilent, Santa Clara, CA, USA) analytical column. The separation was carried out at 1.0 mL/min flow rate at room temperature. During the isocratic elution, the mobile phase contained acetonitrile and 6 mM orthophosphoric acid (52:48 v/v%). Diclofenac and 4′-hydroxydiclofenac were detected at 275 nm.

HSA = details: cited from earlier work
CYP3A4 [2] = target: T2, CYP3A4 (Homo sapiens, UniProt P08684); set-up: method as in PMID 30142539; details: same model as this study; cited from earlier work
CYP2C9 [3] = target: T1, CYP2C9; details: same model as this study; cited from earlier work
HSA Site I (warfarin) = tested on: T3, HSA Site I (warfarin); assay: Ultrafiltration: displacement of Site I marker warfarin from HSA; type: binding, human; details: warfarin 1.0 μM, HSA 5.0 μM, PBS pH 7.4
T3 construct: purchased Sigma-Aldrich
Procedure: Pall Microsep Advance centrifugal devices with a 10-kDa molecular weight cut-off (MWCO) value (VWR; Budapest, Hungary) were applied. […] Before ultrafiltration, the filter units were washed once with 3.0 mL of distilled water and twice with 3.0 mL of PBS; then, samples (with a 2.5 mL volume) were driven through the filters by centrifugation (10 min, 7500× g, fixed-angle rotor, 25 °C). The concentrations of site markers in the filtrates were quantified with HPLC (see Section 2.5). […] The samples were driven through a Nova-Pak C18 guard column (3.9 × 20 mm, 4 μm; Waters,) and a Nova-Pak C18 analytical column (3.9 × 150 mm, 4 μm; Waters). The mobile phase contained sodium phosphate buffer (25 mM, pH 7.0), methanol, and acetonitrile (70:25:5 v/v%).

CYP3A4 [4] = target: T2, CYP3A4; assay: CYP3A4 in vitro enzyme assay (testosterone to 6β-hydroxytestosterone)
Procedure: The inhibitory effect of DHF on CYP3A4 was investigated as described previously. In the enzyme-catalyzed reaction, testosterone is oxidized to 6β-hydroxytestosterone. […] The incubates (with 200 μL final volume) contained CypExpress 3A4 reagent (15 mg/mL; containing also the NADPH generating system), testosterone (5 μM), NADP^+ (200 μM), G6P (500 μM), and increasing concentrations of DHF (0, 5, 10, 15, and 20 μM) in potassium phosphate buffer (50 mM, pH 7.5). Samples were incubated in thermomixer (180 min, 600 rpm, 30 °C). The reaction was started by the addition of the enzyme and stopped by the addition of 100 μL of ice-cold methanol. After centrifugation (10 min, 14,000× g, 25 °C), testosterone and 6β-hydroxytestosterone were analyzed in the supernatants by HPLC (see Section 2.5).
Testosterone and 6β-hydroxytestosterone (CYP3A4 assay) were quantified as reported previously. The samples were driven through a Phenomenex Security Guard (C18, 4.0 × 3.0 mm) guard column linked to a Kinetex EVO C18 (150 × 4.6 mm, 5 μm) analytical column (Phenomenex). The mobile phase contained methanol, water, and glacial acetic acid (59:40:1 v/v%). The isocratic elution was performed at 1.2 mL/min flow rate at room temperature. Testosterone and 6β-hydroxytestosterone were detected at 240 nm.

[5] = tested on: T4, human serum albumin (HSA); assay: Fluorescence quenching of HSA by DHF (Stern-Volmer, Hyperquad2006); type: binding; details: HSA 2 μM, PBS pH 7.4, 25 °C
T4 construct: purchased Sigma-Aldrich
Procedure: Fluorescence spectroscopic measurements were carried out using a Hitachi F-4500 fluorescence spectrophotometer (Tokyo, Japan). The binding constant of the DHF–HSA complex was determined by fluorescence quenching, during which increasing amounts of DHF (final concentrations: 0, 0.5, 1.0, 2.0, 3.0, 4.0, 5.0, and 6.0 μM) were added to HSA (2 μM) in phosphate buffered saline (PBS; pH 7.4; containing 8.00 g/L NaCl, 0.20 g/L KCl, 1.81 g/L Na2HPO4 × 2H2O, and 0.24 g/L KH2PO4); then, emission spectra were recorded using 295-nm excitation wavelength (at 25 °C, in the presence of air). DHF-HSA interaction was evaluated using the graphical application of the Stern-Volmer equation [25, 26]:(1) I0/I=[…], where I0 and I are the fluorescence emission intensity of HSA at 340 nm in the absence and presence of DHF, respectively. KSV denotes the Stern–Volmer quenching constant (unit: L/mol), and [Q] is the concentration of DHF (unit: mol/L). Furthermore, the binding constant (K; unit: L/mol) of the DHF–HSA complex was determined by nonlinear fitting applying the Hyperquad2006 software as described elsewhere. […]

CYP2C19 = CYP2C19 (Homo sapiens, UniProt P33261); assay: CYP2C19 in vitro enzyme assay (S-mephenytoin to 4-hydroxymephenytoin); type: biochemical
Procedure: To study the inhibitory effect of DHF on CYP2C19, S-mephenytoin was used as the substrate. During the enzyme-catalyzed reaction, 4-hydroxymephenytoin is formed. […] The incubation was performed in a thermomixer (120 min, 600 rpm, 30 °C). […] After centrifugation (10 min, 14,000× g, 25 °C), S-mephenytoin and 4-hydroxymephenytoin were quantified in the supernatants by HPLC (see Section 2.5).
The mobile phase contained acetonitrile, methanol, and sodium phosphate buffer (10 mM, pH 4.55) (20:15:65 v/v%). […] S-mephenytoin and 4-hydroxymephenytoin were detected at 230 nm.

[6] = tested on: T5, warfarin-HSA complex (Site I); assay: Fluorescence-based displacement of warfarin from HSA; type: binding, human; details: warfarin 1.0 μM, HSA 3.5 μM, DHF 0-10 μM, PBS pH 7.4, λex 317 nm
T5 construct: purchased Sigma-Aldrich
Procedure: Ultraviolet (UV)-Vis spectra of DHF were recorded employing a Halo DB-20 spectrophotometer (Dynamica; Dietikon, Switzerland), after which the inner filter effect of DHF was corrected in each experiment based on the following equation [26, 28]:(2) Icorr=Iobs×e^(Aex+ Aem)/2, where Icorr and Iobs indicate the corrected and the measured fluorescence emission intensity, respectively, while Aex and Aem denote the absorption of DHF at the excitation and emission wavelengths used, respectively.

HSA Site II (naproxen) = tested on: T6, HSA Site II (naproxen); assay: Ultrafiltration: displacement of Site II marker naproxen from HSA; type: binding, human; details: naproxen 1.0 μM, HSA 1.5 μM, PBS pH 7.4
T6 construct: purchased Sigma-Aldrich
Procedure: Pall Microsep Advance centrifugal devices with a 10-kDa molecular weight cut-off (MWCO) value (VWR; Budapest, Hungary) were applied. […] Before ultrafiltration, the filter units were washed once with 3.0 mL of distilled water and twice with 3.0 mL of PBS; then, samples (with a 2.5 mL volume) were driven through the filters by centrifugation (10 min, 7500× g, fixed-angle rotor, 25 °C). The concentrations of site markers in the filtrates were quantified with HPLC (see Section 2.5). Naproxen was analyzed in the filtrates as described earlier. […] The mobile phase contained acetonitrile and sodium acetate buffer (6.9 mM, pH 4.0) (50:50 v/v%). […] Naproxen was detected at 230 nm.

[7] = set-up: method as in PMID 29295929; details: mice, cited from earlier work
[8] = target: T7, xanthine oxidase (XO; from bovine milk) (Bos taurus, UniProt P80457); assay: Xanthine oxidase in vitro enzyme assay (6-mercaptopurine to 6-thiouric acid); type: biochemical; details: substrate 6-mercaptopurine 5.0 μM
T7 construct: xanthine oxidase (XO; from bovine milk); purchased Sigma-Aldrich; host or cells: bovine milk
Procedure: The inhibitory action of DHF on XO was investigated as described earlier [31]. In the enzyme-catalyzed reaction, 6-mercaptopurine is oxidized to 6-thiouric acid. […] The incubates (with 500 μL final volume) contained XO enzyme (0.01 unit/mL), 6-mercaptopurine (5 μM), and increasing concentrations of DHF (0, 5, 10, 15, and 20 μM) in sodium phosphate buffer (50 mM, pH 7.5). Samples were incubated in thermomixer (40 min, 700 rpm, 37 °C). The reaction was started by the addition of the enzyme and stopped by the addition of 30 μL of perchloric acid (6 M). After the samples were vortexed and centrifuged (5 min, 1,4000× g, room temperature), a 300-μL aliquot of the supernatant was transferred into another Eppendorf tube; then, 36 μL of potassium hydroxide (1 M) was added to this fraction. Samples were cooled to 3 °C, then, centrifuged (5 min, 14,000× g, 3°C). 6-mercaptopurine and 6-thiouric acid were quantified in the supernatants by HPLC (see Section 2.5).
The samples were driven through a Phenomenex SecurityGuard (C18, 4.0 × 3.0 mm) guard column linked to a Phenomenex Gemini-NX C18 (150 × 4.6 mm, 3 μm) analytical column. The eluent contained methanol, acetonitrile, and 0.02 M orthophosphoric acid (4:5:91 v/v%). The isocratic elution was performed at 0.8 mL/min flow rate at room temperature. 6-mercaptopurine and 6-thiouric acid were detected at 334 nm.

[9] = cited from earlier work

T1 sequence (P11712 whole entry): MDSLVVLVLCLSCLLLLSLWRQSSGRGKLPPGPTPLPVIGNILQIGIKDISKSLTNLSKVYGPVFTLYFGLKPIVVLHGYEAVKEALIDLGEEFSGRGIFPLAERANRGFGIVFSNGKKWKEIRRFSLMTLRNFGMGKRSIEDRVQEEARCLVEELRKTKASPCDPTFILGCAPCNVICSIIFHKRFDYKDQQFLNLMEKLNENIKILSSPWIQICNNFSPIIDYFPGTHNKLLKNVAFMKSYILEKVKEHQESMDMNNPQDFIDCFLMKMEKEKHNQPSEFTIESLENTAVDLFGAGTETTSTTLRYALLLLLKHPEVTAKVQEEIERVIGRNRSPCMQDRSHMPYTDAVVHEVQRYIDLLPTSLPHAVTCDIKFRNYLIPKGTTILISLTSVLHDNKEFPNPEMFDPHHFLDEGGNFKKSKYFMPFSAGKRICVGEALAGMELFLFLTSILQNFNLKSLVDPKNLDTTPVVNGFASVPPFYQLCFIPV
T2 sequence (P08684 whole entry): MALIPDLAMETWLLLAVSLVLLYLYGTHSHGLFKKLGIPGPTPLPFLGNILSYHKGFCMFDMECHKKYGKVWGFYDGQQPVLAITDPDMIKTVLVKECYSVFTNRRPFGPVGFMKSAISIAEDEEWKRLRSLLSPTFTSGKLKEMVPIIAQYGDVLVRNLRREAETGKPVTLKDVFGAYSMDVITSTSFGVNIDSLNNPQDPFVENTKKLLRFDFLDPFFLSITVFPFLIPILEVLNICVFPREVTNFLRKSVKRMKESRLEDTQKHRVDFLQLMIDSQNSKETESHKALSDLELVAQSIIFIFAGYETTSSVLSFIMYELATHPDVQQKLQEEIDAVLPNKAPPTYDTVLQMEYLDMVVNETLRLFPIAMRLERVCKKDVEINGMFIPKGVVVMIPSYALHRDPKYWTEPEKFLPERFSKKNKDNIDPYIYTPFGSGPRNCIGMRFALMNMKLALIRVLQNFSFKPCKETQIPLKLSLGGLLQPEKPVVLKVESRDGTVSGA
CYP2C19, sequence (P33261 whole entry): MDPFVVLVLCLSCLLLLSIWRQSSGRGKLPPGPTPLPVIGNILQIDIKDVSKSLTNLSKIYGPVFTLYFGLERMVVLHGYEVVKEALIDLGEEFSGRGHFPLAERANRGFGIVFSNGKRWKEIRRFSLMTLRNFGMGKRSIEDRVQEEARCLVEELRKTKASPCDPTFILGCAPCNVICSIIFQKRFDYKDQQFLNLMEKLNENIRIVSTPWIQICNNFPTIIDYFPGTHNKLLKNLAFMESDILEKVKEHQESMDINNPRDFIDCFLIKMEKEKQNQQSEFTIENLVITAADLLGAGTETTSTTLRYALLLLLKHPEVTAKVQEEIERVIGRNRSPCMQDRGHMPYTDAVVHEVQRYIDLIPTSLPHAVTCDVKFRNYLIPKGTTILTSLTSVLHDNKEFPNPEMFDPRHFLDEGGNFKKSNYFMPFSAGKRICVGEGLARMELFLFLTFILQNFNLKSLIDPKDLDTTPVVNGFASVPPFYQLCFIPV
T7 sequence (P80457 whole entry): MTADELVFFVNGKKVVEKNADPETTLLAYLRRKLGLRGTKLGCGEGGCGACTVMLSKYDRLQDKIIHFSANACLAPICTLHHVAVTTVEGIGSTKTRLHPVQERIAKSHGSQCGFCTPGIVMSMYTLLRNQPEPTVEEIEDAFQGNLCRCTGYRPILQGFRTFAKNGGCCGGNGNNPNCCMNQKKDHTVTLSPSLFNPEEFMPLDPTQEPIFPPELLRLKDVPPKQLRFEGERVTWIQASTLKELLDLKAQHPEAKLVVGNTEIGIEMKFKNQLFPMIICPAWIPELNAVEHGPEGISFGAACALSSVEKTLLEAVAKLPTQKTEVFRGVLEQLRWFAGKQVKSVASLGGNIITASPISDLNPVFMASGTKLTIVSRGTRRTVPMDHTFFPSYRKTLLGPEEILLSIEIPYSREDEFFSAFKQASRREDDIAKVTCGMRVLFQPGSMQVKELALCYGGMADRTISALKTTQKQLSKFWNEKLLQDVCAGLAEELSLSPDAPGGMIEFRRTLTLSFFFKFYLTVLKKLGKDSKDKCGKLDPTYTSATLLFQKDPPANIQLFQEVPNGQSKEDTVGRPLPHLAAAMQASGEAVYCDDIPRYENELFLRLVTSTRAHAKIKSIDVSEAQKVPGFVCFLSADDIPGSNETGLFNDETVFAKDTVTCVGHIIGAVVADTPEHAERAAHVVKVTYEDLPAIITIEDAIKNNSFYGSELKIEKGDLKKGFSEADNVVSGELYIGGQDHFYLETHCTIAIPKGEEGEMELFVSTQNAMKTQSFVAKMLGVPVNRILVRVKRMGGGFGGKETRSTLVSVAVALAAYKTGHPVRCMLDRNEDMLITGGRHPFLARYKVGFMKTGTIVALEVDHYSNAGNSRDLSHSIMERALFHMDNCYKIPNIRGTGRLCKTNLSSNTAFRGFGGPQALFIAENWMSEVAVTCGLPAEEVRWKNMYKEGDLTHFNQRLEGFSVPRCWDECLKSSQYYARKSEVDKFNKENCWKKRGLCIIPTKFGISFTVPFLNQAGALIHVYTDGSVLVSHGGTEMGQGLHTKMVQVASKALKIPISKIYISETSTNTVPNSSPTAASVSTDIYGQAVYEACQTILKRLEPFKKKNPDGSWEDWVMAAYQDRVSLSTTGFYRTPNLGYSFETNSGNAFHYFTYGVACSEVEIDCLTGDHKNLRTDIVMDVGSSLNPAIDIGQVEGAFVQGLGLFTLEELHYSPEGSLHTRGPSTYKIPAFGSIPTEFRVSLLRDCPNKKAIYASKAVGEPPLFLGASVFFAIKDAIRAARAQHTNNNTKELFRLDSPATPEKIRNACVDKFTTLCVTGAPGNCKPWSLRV

SMILES: CC(=O)CC(c1ccccc1)c1c(O)c2ccccc2oc1=O (stereo not shown) [WAR, warfarin, reference compound]
- IC50(rel) (IC50 divided by substrate concentration) (CYP2C9 [1]; human, 80 min, pH 7.5): 2.3
- binding constant K to HSA (HSA; warfarin-HSA): 340000 L/mol

SMILES: O=c1cc(-c2ccccc2)oc2cc(O)cc(O)c12 [chrysin, 5,7-dihydroxyflavone]
- binding constant K to HSA (HSA; chrysin-HSA): 340000 L/mol

SMILES: Oc1ccc(/C=C/c2cc(O)cc(O)c2)cc1 [resveratrol]
- inhibitory effect on CYP3A4 compared to DHF (CYP3A4 [2]): two-fold stronger inhibitor

SMILES: COc1ccc(-c2oc3cc(OC)c(OC)c(O)c3c(=O)c2OC)cc1O [casticin]
- fold weaker inhibitor of CYP2C9 compared to DHF (CYP2C9 [3]): 1.3 fold

SMILES: O=c1cc(-c2ccccc2)oc2c(O)c(O)ccc12 [DHF, 7,8-dihydroxyflavone]
- fraction of total warfarin became unbound (HSA Site I (warfarin); 10 μM DHF): 12%
- fraction of total warfarin became unbound (HSA Site I (warfarin); 20 μM DHF): 21%
- IC50 (CYP3A4 [4]): 14.5 µM
- IC50(rel) (IC50 divided by substrate concentration) (CYP3A4 [4]; human, 180 min, pH 7.5): 2.9
- Stern-Volmer quenching constant KSV ([5]; λex 295 nm, λem 340 nm): 344000 ± 3000 L/mol
- binding constant K of DHF-HSA complex ([5]; nonlinear fitting with Hyperquad2006): 490000 L/mol and 487000 ± 7000 L/mol
- IC50 (CYP2C9 [1]): 34.5 µM
- IC50(rel) (IC50 divided by substrate concentration) (CYP2C9 [1]; human, 80 min, pH 7.5): 2.3
- α (IC50 of DHF divided by IC50 of positive control) (CYP2C9 [1]; human, 80 min, pH 7.5): 1.0
- IC50 (CYP2C19): 19 µM
- IC50(rel) (IC50 divided by substrate concentration) (CYP2C19; human, 120 min, pH 7.5): 3.8
- effect on fluorescence emission signal of warfarin at 379 nm [6]: strongly decreased
- further fraction of total naproxen in the filtrate (HSA Site II (naproxen); 10 μM DHF): 14%
- further fraction of total naproxen in the filtrate (HSA Site II (naproxen); 20 μM DHF): 22%
- plasma concentrations ([7]; per os 15-50 mg/kg DHF): 33 to 192 nM
- oral bioavailability [7]: approximately 4.5%
- IC50 [8]: 11 µM

SMILES: Clc1ccccc1CN1CCc2sccc2C1 [TIC, ticlopidine]
- peak plasma concentrations ([9]; chronic treatment, oral 250 mg twice daily, men): 3.4 to 4.1 µM
- average peak plasma concentrations ([9]; oral 3 × 100 mg daily, healthy subjects): approximately 3.5 μM
- peak plasma concentration ([9]; oral single 250 mg dose): 1.3 to 2.6 µM
